Key:
[1] = system: PSMA-expressing 22Rv1 tumor; assay: SPECT imaging in 22Rv1 cell-transplanted mice; assay type: in vivo, BALB/c nude mouse
Description: Specifically, 0.1 mL of RPMI1640 culture medium containing 5×10^6 22 Rv1 cells was subcutaneously injected into the right back of a 4-week-old male BALE/c nude mouse. After 2 to 3 weeks, the present inventors confirmed that the tumor tissue had reached an appropriate size and used it in the experiment. For animal injection, [^99mTc]Tc-15 and [^99mTc]Tc-16 were each diluted in saline for injection to a concentration of 10.2 MBq/100 μL. […]

[2] = Stability test in human serum; assay type: in vitro ADME; details: 36.5° C., after 2 hours
Description: The stability test in human serum is to test the stability when it comes into contact with human serum after administration to the human body, and the stability in the body is partly tested in vitro.
(§1) In order to examine the stability of [^99mTc]Tc-15 according to the present invention in human serum, 3.7 MBq of [^99mTc]Tc-15 (100 μL) prepared in Example 3 was added to 1 mL of human serum, mixed well, and then cultured at 36.5° C. with stirring. After 2 hours, the reaction mixture was analyzed by ITLC.
as §1, with “of [^99mTc]Tc-16” for “of [^99mTc]Tc-15”, “Example 4” for “Example 3”

PSMA = PSMA (Homo sapiens, UniProt Q04609); details: 22Rv1 cells, 1 hour at 37° C., non-specific binding with 250 μM PMPA, nonlinear regression
PSMA, sequence (Q04609 whole entry): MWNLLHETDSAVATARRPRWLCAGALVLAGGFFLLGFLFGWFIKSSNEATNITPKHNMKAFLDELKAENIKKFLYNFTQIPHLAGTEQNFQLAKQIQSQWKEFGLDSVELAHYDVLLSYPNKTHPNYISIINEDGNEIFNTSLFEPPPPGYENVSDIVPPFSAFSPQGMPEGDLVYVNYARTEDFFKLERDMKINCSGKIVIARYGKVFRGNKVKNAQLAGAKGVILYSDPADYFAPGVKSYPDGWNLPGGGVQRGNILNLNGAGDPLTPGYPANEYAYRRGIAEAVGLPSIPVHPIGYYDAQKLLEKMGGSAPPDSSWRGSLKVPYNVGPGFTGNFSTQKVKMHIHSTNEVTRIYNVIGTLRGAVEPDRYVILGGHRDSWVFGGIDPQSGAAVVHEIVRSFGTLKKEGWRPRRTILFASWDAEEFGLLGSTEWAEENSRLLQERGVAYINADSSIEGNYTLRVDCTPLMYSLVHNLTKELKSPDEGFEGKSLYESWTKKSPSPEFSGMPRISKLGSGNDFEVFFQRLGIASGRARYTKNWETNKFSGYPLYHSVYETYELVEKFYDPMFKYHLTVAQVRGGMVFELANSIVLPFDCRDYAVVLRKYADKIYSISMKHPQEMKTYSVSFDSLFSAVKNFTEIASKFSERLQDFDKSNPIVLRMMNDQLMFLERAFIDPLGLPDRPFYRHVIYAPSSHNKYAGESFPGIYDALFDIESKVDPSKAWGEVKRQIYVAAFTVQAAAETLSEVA
Description: The PSMA-positive prostate cancer cell line 22Rv1 was placed in a 24-well plate at the density of 1×10^5 cells/well, followed by culture in a 37° C., 5% CO2 incubator for 24 hours. […] 0.5 mL of the diluted solution was taken and put into cultured cells and incubated in a 37° C., 5% CO2 incubator for 1 hour. After removing the culture medium, the cells were washed twice with fresh culture medium, 1 mL of 0.5% sodium dodecyl sulfate (SDS) dissolved in phosphate buffered saline was added thereto, gently shaken to dissolve, and then transferred to a 5 mL disposable plastic test tube. The radioactivity of the tube was measured using a gamma counter. […] Specific binding was obtained by subtracting non-specific binding from total binding, and a saturation curve was drawn. […] From these saturation curves, the dissociation constant, Kd, was calculated by nonlinear regression using GraphPad Prism 7 program.

[3] = system: PSMA-targeted 22Rv1 tumor; assay: In vivo distribution test in cancer transplantation animals; set-up: species or system BALB/c male nude mice
Description: Specifically, 0.1 mL of RPMI1640 culture medium containing 5×10^6 22 Rv1 cells was subcutaneously injected into the left flank of a 4-week-old male BALB/c nude mouse. After 2 to 3 weeks, the present inventors confirmed that the tumor tissue had reached an appropriate size and used it in the experiment. For animal injection, [^99mTc]Tc-15 prepared in Example 3 and [^99mTc]Tc-16 prepared in Example 4 were each diluted in saline for injection to a concentration of 0.74 MBq/100 μL. Each of these was injected into the tail vein of the mice transplanted with cancer cells, and after 1 hour and 4 hours, cancer, blood, muscle, heart. Lung, liver, spleen, stomach, small intestine, kidney, bone, and the like were collected and their weight and radioactivity were measured.

[4] = 1 h Blockade, co-injection of 2-PMPA (100 μg)
[5] = 4 h Blockade, co-injection of 2-PMPA (100 μg)

## [99Tc+].[C-]#[N+]CCC(=O)NCCCCCC(=O)NCCCCC(NC(=O)N[C@@H](CCC(=O)O)C(=O)O)C(=O)O.[C-]#[N+]CCC(=O)NCCCCCC(=O)NCCCCC(NC(=O)N[C@@H](CCC(=O)O)C(=O)O)C(=O)O.[C-]#[N+]CCC(=O)NCCCCCC(=O)NCCCCC(NC(=O)N[C@@H](CCC(=O)O)C(=O)O)C(=O)O.[C-]#[O+].[C-]#[O+].[C-]#[O+] (stereo partly shown) [[^99mTc]Tc-15]
[1]; MIP-1072 injected to selectively block PSMA
  tumor intake in SPECT image with PSMA blocked: tumor intake was not observed
[1]; intravenous injection, 1 hour and 3 hours after the injection
  tumor intake in SPECT image: no clear intake was observed
[1]; tail vein injection, 1 hour and 3 hours
  distribution observed in SPECT image: not only excreted by the kidney but also ingested into the prostate cancer tissue
[2]
  stability in human serum (ITLC): most of them were present as [^99mTc]Tc-15 and hardly separated as ^99mTc
PSMA
  Kd: 5.5 nM
[3]; 1 h
  In vivo distribution, Blood: 0.60 % ID/g
  In vivo distribution, Bone: 0.34 % ID/g
  In vivo distribution, Heart: 0.22 % ID/g
  In vivo distribution, Intestine: 0.78 % ID/g
  In vivo distribution, Kidney: 59.59 % ID/g
  In vivo distribution, Liver: 0.94 % ID/g
  In vivo distribution, Lung: 0.64 % ID/g
  In vivo distribution, Muscle: 0.17 % ID/g
  In vivo distribution, Spleen: 0.90 % ID/g
  In vivo distribution, Stomach: 0.31 % ID/g
  In vivo distribution, Tumor: 1.48 % ID/g
  Tumor/blood: 2.5
  Tumor/kidney: 0.02
  Tumor/liver: 1.57
  Tumor/muscle: 8.5
[3]; [4]
  In vivo distribution, Blood: 0.52 % ID/g
  In vivo distribution, Bone: 0.26 % ID/g
  In vivo distribution, Heart: 0.16 % ID/g
  In vivo distribution, Intestine: 0.55 % ID/g
  In vivo distribution, Kidney: 4.22 % ID/g
  In vivo distribution, Liver: 0.84 % ID/g
  In vivo distribution, Lung: 0.61 % ID/g
  In vivo distribution, Muscle: 0.11 % ID/g
  In vivo distribution, Spleen: 0.15 % ID/g
  In vivo distribution, Stomach: 0.17 % ID/g
  In vivo distribution, Tumor: 0.38 % ID/g
  Tumor/blood: 0.73
  Tumor/kidney: 0.09
  Tumor/liver: 0.45
  Tumor/muscle: 3.5
[3]; 4 h
  In vivo distribution, Blood: 0.31 % ID/g
  In vivo distribution, Bone: 0.16 % ID/g
  In vivo distribution, Heart: 0.12 % ID/g
  In vivo distribution, Intestine: 0.81 % ID/g
  In vivo distribution, Kidney: 13.72 % ID/g
  In vivo distribution, Liver: 0.85 % ID/g
  In vivo distribution, Lung: 0.30 % ID/g
  In vivo distribution, Muscle: 0.08 % ID/g
  In vivo distribution, Spleen: 0.26 % ID/g
  In vivo distribution, Stomach: 0.15 % ID/g
  In vivo distribution, Tumor: 0.81 % ID/g
  Tumor/blood: 2.6
  Tumor/kidney: 0.06
  Tumor/liver: 0.96
  Tumor/muscle: 10.4
[3]; [5]
  In vivo distribution, Blood: 0.31 % ID/g
  In vivo distribution, Bone: 0.20 % ID/g
  In vivo distribution, Heart: 0.10 % ID/g
  In vivo distribution, Intestine: 0.97 % ID/g
  In vivo distribution, Kidney: 1.44 % ID/g
  In vivo distribution, Liver: 0.84 % ID/g
  In vivo distribution, Lung: 0.30 % ID/g
  In vivo distribution, Muscle: 0.08 % ID/g
  In vivo distribution, Spleen: 0.16 % ID/g
  In vivo distribution, Stomach: 0.14 % ID/g
  In vivo distribution, Tumor: 0.20 % ID/g
  Tumor/blood: 0.65
  Tumor/kidney: 0.14
  Tumor/liver: 0.24
  Tumor/muscle: 2.71
[3]; summary of Tables 2 and 3
  intake when PSMA was blocked with PMPA: the intake was decreased
  tissue with highest intake: the highest intake in the kidney

Source: patent publication US12486294B2, “Radioisotope labeled compound for imaging or treatment of prostate cancer” (SEOUL NATIONAL UNIVERSITY R&DB FOUNDATION, priority 2019, dated 2025)
